Laboratory results as given in PubChem BioAssay (NCI).
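GI50 is the concentration that inhibits growth by half. TGI is the concentration that stops growth completely.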

Columns and labels:
Assay in all cases: NCI tumour cell line growth inhibition, 384-well format; in the data active = GI50 below about 0.43 µM; inactive = the rest
786-0 renal = system: 786-0 renal
A498 renal = system: A498 renal
A549 NSCLC = system: A549 NSCLC
ACHN renal = system: ACHN renal
BT-549 breast = system: BT-549 breast
CAKI-1 renal = system: CAKI-1 renal
CCRF-CEM leukemia = system: CCRF-CEM leukemia
COLO 205 colon = system: COLO 205 colon
DU-145 prostate = system: DU-145 prostate
EKVX NSCLC = system: EKVX NSCLC
HCC-2998 colon = system: HCC-2998 colon
HCT-116 colon = system: HCT-116 colon
HCT-15 colon = system: HCT-15 colon
HL-60(TB) leukemia = system: HL-60(TB) leukemia
HOP-62 NSCLC = system: HOP-62 NSCLC
HOP-92 NSCLC = system: HOP-92 NSCLC
HS 578T breast = system: HS 578T breast
HT29 colon = system: HT29 colon
IGROV1 ovarian = system: IGROV1 ovarian
K-562 leukemia = system: K-562 leukemia
KM12 colon = system: KM12 colon
LOX IMVI melanoma = system: LOX IMVI melanoma
M14 melanoma = system: M14 melanoma
MALME-3M melanoma = system: MALME-3M melanoma
MCF7 breast = system: MCF7 breast
MDA-MB-231 breast = system: MDA-MB-231 breast
MDA-MB-435 melanoma = system: MDA-MB-435 melanoma
MDA-MB-468 breast = system: MDA-MB-468 breast
MOLT-4 leukemia = system: MOLT-4 leukemia

O=C(Nc1cc(F)c(F)cc1C(=O)O)c1ccc(-n2ccnc2)nn1
inactive: GI50 ([…]-0 renal) > 100 µM | GI50 (A498 renal) > 100 µM | GI50 (A549 NSCLC) > 100 µM | GI50 (ACHN renal) > 100 µM | GI50 (BT-549 breast) > 100 µM | GI50 (CAKI-1 renal) > 100 µM | GI50 (CCRF-CEM leukemia) > 100 µM | GI50 (COLO 205 colon) > 100 µM | GI50 (DU-145 prostate) > 100 µM | GI50 (EKVX NSCLC) > 100 µM | GI50 (HCC-2998 colon) > 100 µM | GI50 (HCT-116 colon) > 100 µM | GI50 (HCT-15 colon) > 100 µM | GI50 (HL-60(TB) leukemia) > 100 µM | GI50 (HOP-62 NSCLC) > 100 µM | GI50 (HOP-92 NSCLC) > 100 µM | GI50 (HS 578T breast) > 100 µM | GI50 (HT29 colon) > 100 µM | GI50 (IGROV1 ovarian) > 100 µM | GI50 (K-562 leukemia) 50.6 µM | GI50 (KM12 colon) > 100 µM | GI50 (LOX IMVI melanoma) > 100 µM | GI50 (M14 melanoma) > 100 µM | GI50 (MALME-3M melanoma) > 100 µM | GI50 (MCF7 breast) > 100 µM | GI50 (MDA-MB-231 breast) > 100 µM | GI50 (MDA-MB-435 melanoma) > 100 µM | GI50 (MDA-MB-468 breast) 29.2 µM | GI50 (MOLT-4 leukemia) > 100 µM
> 100 µM: TGI (786-0 renal) | TGI (A498 renal) | TGI (A549 NSCLC) | TGI (ACHN renal) | TGI (BT-549 breast) | TGI (CAKI-1 renal) | TGI (CCRF-CEM leukemia) | TGI (COLO 205 colon) | TGI (DU-145 prostate) | TGI (EKVX NSCLC) | TGI (HCC-2998 colon) | TGI (HCT-116 colon) | TGI (HCT-15 colon) | TGI (HL-60(TB) leukemia) | TGI (HOP-62 NSCLC) | TGI (HOP-92 NSCLC) | TGI (HS 578T breast) | TGI (HT29 colon) | TGI (IGROV1 ovarian) | TGI (K-562 leukemia) | TGI (KM12 colon) | TGI (LOX IMVI melanoma) | TGI (M14 melanoma) | TGI (MALME-3M melanoma) | TGI (MCF7 breast) | TGI (MDA-MB-231 breast) | TGI (MDA-MB-435 melanoma) | TGI (MDA-MB-468 breast) | TGI (MOLT-4 leukemia)
